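Growth conditions: 96-well plates. Treatment: test compound, 48 hours, 5 concentrations. Analysis: linear interpolation between bracketing concentrations; unreached endpoints set to highest concentration. At the GI50, growth is halved.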 Active and inactive are the calls of the source. Cut-off read from the data, not from the text of the source: active = GI50 up to about 1.1 µM and inactive = higher.
What was measured:
Assay in all cases: inhibition of tumour cell growth, NCI panel, 48 h
786-0 = tested on: 786-0
A498 = tested on: A498
A549 = tested on: A549
ACHN = tested on: ACHN
CAKI-1 = tested on: CAKI-1
CCRF-CEM = tested on: CCRF-CEM
COLO 205 = tested on: COLO 205
DLD-1 = tested on: DLD-1
DMS-114 = tested on: DMS-114
DMS-273 = tested on: DMS-273
EKVX = tested on: EKVX
HCC 2998 = tested on: HCC 2998
HCT-116 = tested on: HCT-116
HCT-15 = tested on: HCT-15
HL-60 = tested on: HL-60
HOP-18 = tested on: HOP-18
HOP-62 = tested on: HOP-62
HOP-92 = tested on: HOP-92
HT-29 = tested on: HT-29
IGROV-1 = tested on: IGROV-1
K562 = tested on: K562
KM-20L2 = tested on: KM-20L2
KM12 = tested on: KM12
LOX IMVI = tested on: LOX IMVI
LXFL 529 = tested on: LXFL 529
M14 = tested on: M14
M19-MEL = tested on: M19-MEL
MOLT-4 = tested on: MOLT-4
Malme-3M = tested on: Malme-3M
NCI-H226 = tested on: NCI-H226
NCI-H23 = tested on: NCI-H23
NCI-H460 = tested on: NCI-H460
NCI-H522 = tested on: NCI-H522
OVCAR-3 = tested on: OVCAR-3
OVCAR-4 = tested on: OVCAR-4
OVCAR-5 = tested on: OVCAR-5
OVCAR-8 = tested on: OVCAR-8
RPMI-8226 = tested on: RPMI-8226
RXF 393 = tested on: RXF 393
RXF 631 = tested on: RXF 631
SF-268 = tested on: SF-268
SF-295 = tested on: SF-295
SF-539 = tested on: SF-539
SK-MEL-28 = tested on: SK-MEL-28
SK-MEL-2 = tested on: SK-MEL-2
SK-OV-3 = tested on: SK-OV-3
SN12C = tested on: SN12C
SNB-19 = tested on: SNB-19
SNB-75 = tested on: SNB-75
SNB-78 = tested on: SNB-78
SR = tested on: SR
SW-620 = tested on: SW-620
TK-10 = tested on: TK-10
U-251 = tested on: U-251
UACC-257 = tested on: UACC-257
UACC-62 = tested on: UACC-62
UO-31 = tested on: UO-31
XF498 = tested on: XF498
SK-MEL-5 = tested on: SK-MEL-5

Structure (SMILES): O=C(CC1=Nc2nnc(CCCCCCCc3nnc4n3C(=O)C(CC(=O)c3ccc5ccccc5c3)=N4)n2C1=O)c1ccc2ccccc2c1
- GI50 (786-0): > 100 µM (inactive)
- GI50 (A498): < 0.01 µM (active)
- GI50 (A549): > 100 µM (inactive)
- GI50 (ACHN): > 100 µM (inactive)
- GI50 (CAKI-1): > 100 µM (inactive)
- GI50 (CCRF-CEM): > 100 µM (inactive)
- GI50 (COLO 205): > 100 µM (inactive)
- GI50 (DLD-1): > 100 µM (inactive)
- GI50 (DMS-114): > 100 µM (inactive)
- GI50 (DMS-273): > 100 µM (inactive)
- GI50 (EKVX): 63.5 µM (inactive)
- GI50 (HCC 2998): > 100 µM (inactive)
- GI50 (HCT-116): > 100 µM (inactive)
- GI50 (HCT-15): > 100 µM
- GI50 (HL-60): > 100 µM (inactive)
- GI50 (HOP-18): > 100 µM (inactive)
- GI50 (HOP-62): > 100 µM (inactive)
- GI50 (HOP-92): > 100 µM (inactive)
- GI50 (HT-29): > 100 µM (inactive)
- GI50 (IGROV-1): 66.2 µM (inactive)
- GI50 (K562): > 100 µM (inactive)
- GI50 (KM-20L2): > 100 µM (inactive)
- GI50 (KM12): > 100 µM (inactive)
- GI50 (LOX IMVI): > 100 µM (inactive)
- GI50 (LXFL 529): > 100 µM (inactive)
- GI50 (M14): > 100 µM (inactive)
- GI50 (M19-MEL): > 100 µM (inactive)
- GI50 (MOLT-4): > 100 µM (inactive)
- GI50 (Malme-3M): > 100 µM (inactive)
- GI50 (NCI-H226): > 100 µM (inactive)
- GI50 (NCI-H23): > 100 µM (inactive)
- GI50 (NCI-H460): > 100 µM (inactive)
- GI50 (NCI-H522): > 100 µM (inactive)
- GI50 (OVCAR-3): > 100 µM (inactive)
- GI50 (OVCAR-4): > 100 µM (inactive)
- GI50 (OVCAR-5): > 100 µM (inactive)
- GI50 (OVCAR-8): > 100 µM (inactive)
- GI50 (RPMI-8226): > 100 µM (inactive)
- GI50 (RXF 393): > 100 µM (inactive)
- GI50 (RXF 631): 51.9 µM (inactive)
- GI50 (SF-268): > 100 µM (inactive)
- GI50 (SF-295): > 100 µM (inactive)
- GI50 (SF-539): > 100 µM (inactive)
- GI50 (SK-MEL-28): > 100 µM (inactive)
- GI50 (SK-MEL-2): > 100 µM (inactive)
- GI50 (SK-OV-3): > 100 µM (inactive)
- GI50 (SN12C): > 100 µM (inactive)
- GI50 (SNB-19): > 100 µM (inactive)
- GI50 (SNB-75): > 100 µM (inactive)
- GI50 (SNB-78): > 100 µM (inactive)
- GI50 (SR): > 100 µM (inactive)
- GI50 (SW-620): > 100 µM (inactive)
- GI50 (TK-10): > 100 µM (inactive)
- GI50 (U-251): > 100 µM (inactive)
- GI50 (UACC-257): > 100 µM (inactive)
- GI50 (UACC-62): > 100 µM (inactive)
- GI50 (UO-31): > 100 µM (inactive)
- GI50 (XF498): > 100 µM (inactive)

Structure (SMILES): CC(=O)O[C@H]1C=CC(=O)C(C)CC1C (some centres not stated)
- GI50 (A498): > 100 µM (inactive)
- GI50 (A549): > 100 µM (inactive)
- GI50 (ACHN): > 100 µM (inactive)
- GI50 (CAKI-1): > 100 µM (inactive)
- GI50 (CCRF-CEM): 60.1 µM (inactive)
- GI50 (COLO 205): 55.8 µM (inactive)
- GI50 (DLD-1): 64 µM (inactive)
- GI50 (DMS-114): > 100 µM (inactive)
- GI50 (DMS-273): > 100 µM (inactive)
- GI50 (EKVX): > 100 µM (inactive)
- GI50 (HCC 2998): > 100 µM (inactive)
- GI50 (HCT-116): 44.8 µM (inactive)
- GI50 (HL-60): 64.9 µM (inactive)
- GI50 (HOP-62): > 100 µM (inactive)
- GI50 (HOP-92): > 100 µM (inactive)
- GI50 (HT-29): > 100 µM (inactive)
- GI50 (IGROV-1): > 100 µM (inactive)
- GI50 (K562): > 100 µM (inactive)
- GI50 (KM-20L2): > 100 µM (inactive)
- GI50 (KM12): > 100 µM (inactive)
- GI50 (LOX IMVI): 45.8 µM (inactive)
- GI50 (LXFL 529): > 100 µM (inactive)
- GI50 (M14): > 100 µM (inactive)
- GI50 (M19-MEL): > 100 µM (inactive)
- GI50 (MOLT-4): > 100 µM (inactive)
- GI50 (Malme-3M): > 100 µM (inactive)
- GI50 (NCI-H226): > 100 µM (inactive)
- GI50 (NCI-H23): 75.9 µM (inactive)
- GI50 (NCI-H460): > 100 µM (inactive)
- GI50 (NCI-H522): 37.9 µM (inactive)
- GI50 (OVCAR-3): > 100 µM (inactive)
- GI50 (OVCAR-4): > 100 µM (inactive)
- GI50 (OVCAR-5): > 100 µM (inactive)
- GI50 (RXF 393): 42.6 µM (inactive)
- GI50 (RXF 631): > 100 µM (inactive)
- GI50 (SF-268): > 100 µM (inactive)
- GI50 (SF-295): > 100 µM (inactive)
- GI50 (SF-539): > 100 µM (inactive)
- GI50 (SK-MEL-28): > 100 µM (inactive)
- GI50 (SK-MEL-2): > 100 µM (inactive)
- GI50 (SK-MEL-5): > 100 µM (inactive)
- GI50 (SK-OV-3): > 100 µM (inactive)
- GI50 (SN12C): > 100 µM (inactive)
- GI50 (SNB-19): > 100 µM (inactive)
- GI50 (SNB-75): > 100 µM (inactive)
- GI50 (SNB-78): > 100 µM (inactive)
- GI50 (SR): > 100 µM (inactive)
- GI50 (SW-620): 73.5 µM (inactive)
- GI50 (TK-10): > 100 µM (inactive)
- GI50 (U-251): > 100 µM (inactive)
- GI50 (UACC-257): > 100 µM (inactive)
- GI50 (UACC-62): > 100 µM (inactive)
- GI50 (UO-31): > 100 µM (inactive)
- GI50 (XF498): > 100 µM (inactive)

Structure (SMILES): CCOC(=O)Nc1ccc(S(=O)(=O)OC)cc1.CCOC(=O)Nc1ccc(S(=O)(=O)OC)cc1.Nc1ncnc2c1ncn2C1OC(CO)C(O)C1O (configuration not stated)
- GI50 (786-0): 21.5 µM (inactive)
- GI50 (A498): > 100 µM (inactive)
- GI50 (A549): 34.3 µM (inactive)
- GI50 (ACHN): > 100 µM (inactive)
- GI50 (CAKI-1): > 100 µM (inactive)
- GI50 (CCRF-CEM): 20.6 µM (inactive)
- GI50 (COLO 205): 49 µM (inactive)
- GI50 (DLD-1): 33.1 µM (inactive)
- GI50 (DMS-114): 18 µM (inactive)
- GI50 (DMS-273): 30.8 µM (inactive)
- GI50 (EKVX): > 100 µM (inactive)
- GI50 (HCC 2998): > 100 µM (inactive)
- GI50 (HCT-116): 17.5 µM (inactive)
- GI50 (HCT-15): 34.2 µM
- GI50 (HL-60): 21.8 µM (inactive)
- GI50 (HOP-18): > 100 µM (inactive)
- GI50 (HOP-62): > 100 µM (inactive)
- GI50 (HOP-92): > 100 µM (inactive)
- GI50 (HT-29): 26.3 µM (inactive)
- GI50 (IGROV-1): > 100 µM (inactive)
- GI50 (K562): 23 µM (inactive)
- GI50 (KM-20L2): > 100 µM (inactive)
- GI50 (KM12): 99.8 µM (inactive)
- GI50 (LOX IMVI): 17.8 µM (inactive)
- GI50 (LXFL 529): > 100 µM (inactive)
- GI50 (M14): > 100 µM (inactive)
- GI50 (M19-MEL): 21.9 µM (inactive)
- GI50 (MOLT-4): > 100 µM (inactive)
- GI50 (Malme-3M): > 100 µM (inactive)
- GI50 (NCI-H226): > 100 µM (inactive)
- GI50 (NCI-H23): > 100 µM (inactive)
- GI50 (NCI-H460): > 100 µM (inactive)
- GI50 (OVCAR-3): > 100 µM (inactive)
- GI50 (OVCAR-4): 35.3 µM (inactive)
- GI50 (OVCAR-5): > 100 µM (inactive)
- GI50 (OVCAR-8): > 100 µM (inactive)
- GI50 (RPMI-8226): 21.6 µM (inactive)
- GI50 (RXF 631): > 100 µM (inactive)
- GI50 (SF-268): > 100 µM (inactive)
- GI50 (SF-295): > 100 µM (inactive)
- GI50 (SF-539): > 100 µM (inactive)
- GI50 (SK-MEL-28): > 100 µM (inactive)
- GI50 (SK-MEL-2): > 100 µM (inactive)
- GI50 (SK-MEL-5): > 100 µM (inactive)
- GI50 (SK-OV-3): > 100 µM (inactive)
- GI50 (SN12C): > 100 µM (inactive)
- GI50 (SNB-19): > 100 µM (inactive)
- GI50 (SNB-75): > 100 µM (inactive)
- GI50 (SNB-78): > 100 µM (inactive)
- GI50 (SW-620): 18.2 µM (inactive)
- GI50 (TK-10): > 100 µM (inactive)
- GI50 (UACC-257): 39.6 µM (inactive)
- GI50 (UACC-62): > 100 µM (inactive)
- GI50 (UO-31): > 100 µM (inactive)
- GI50 (XF498): 92.3 µM (inactive)

Reference: ChEMBL document CHEMBL1201862, “PubChem BioAssay data set” (2004)
